Assay [1] concerns the target PIM1 (Homo sapiens, UniProt P11309). Kind of assay: KinaseGlo Pim1 ATP depletion assay. The class given is biochemical. A digest of the protocol: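 IC50 is derived from residual ATP measured by KinaseGlo Plus luminescence once about half the ATP was consumed. Final conditions were 20 μM ATP, 40 μM BAD peptide and 2.5 nM kinase in HEPES pH 7.5 buffer with MgCl2, DTT and BSA, plus 2.5% DMSO. Compound and enzyme were premixed 15 min before ATP addition.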
(In Kinase-Glo more light means more ATP remaining.)

In assay [2] the test system is KMS11 (human myeloma cell line). In words: Cell proliferation assay (CellTiter-Glo), KMS11. The class given is cell-based. Conditions: Homo sapiens, KMS-11; KMS11-Luc cells. A digest of the protocol:
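EC50 derived from CellTiter-Glo luminescence after 3-day exposure at 37° C. Compound was diluted to 2× in medium and added to an equal volume of cells. KMS11 myeloma cells were plated on assay day at 2000/well in IMDM with 10% FBS and sodium pyruvate.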
For orientation: Cellular ATP, detected with luciferase, serves as a proxy for viable cell number.

Assay [3] concerns the target PIM3 (Homo sapiens, UniProt Q86V86). Kind of assay: KinaseGlo Pim3 ATP depletion assay. The class given is biochemical. A digest of the protocol:
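Residual ATP was detected by luciferase luminescence once about half had been consumed. The reaction contained 5 nM enzyme, 100 μM BAD peptide (RSRHSSYPAGT) and 40 μM ATP in 50 mM HEPES pH 7.5, 5 mM MgCl2, 1 mM DTT and 0.05% BSA with 2.5% DMSO. Compound and enzyme/peptide were premixed 15 min before ATP.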

Assay [4] addresses GSK3β (Homo sapiens, UniProt P49841). In words: GSK3β ATP depletion assay. The class given is biochemical. Conditions: read-out: GSK3b IC50. The procedure, abridged: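 Kinase activity is read as ATP consumption: luciferase luminescence reports the ATP remaining once roughly half of the 2 μM ATP is used. Reaction mix: 5 nM GSK3β, 10 μM b-CREB peptide, 50 mM Tris pH 7.5, 15 mM MgCl2, 1 mM DTT, 0.1% BSA, 2.5% DMSO. Enzyme and peptide are preincubated 15 min before ATP is added.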

The target in assay [5] is PIM2 (Homo sapiens, UniProt Q9P1W9). In words: KinaseGlo Pim2 ATP depletion assay. The class given is biochemical. A digest of the protocol: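 Compound sat 15 min with enzyme and BAD peptide before ATP was added; final levels 5 nM PIM2, 10 μM peptide, 4 μM ATP, 2.5% DMSO, pH 7.5 HEPES buffer with MgCl2, DTT, BSA. Stopped near 50% ATP consumption; remaining ATP measured by luciferase luminescence.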
PIM2, sequence (Q9P1W9 whole entry): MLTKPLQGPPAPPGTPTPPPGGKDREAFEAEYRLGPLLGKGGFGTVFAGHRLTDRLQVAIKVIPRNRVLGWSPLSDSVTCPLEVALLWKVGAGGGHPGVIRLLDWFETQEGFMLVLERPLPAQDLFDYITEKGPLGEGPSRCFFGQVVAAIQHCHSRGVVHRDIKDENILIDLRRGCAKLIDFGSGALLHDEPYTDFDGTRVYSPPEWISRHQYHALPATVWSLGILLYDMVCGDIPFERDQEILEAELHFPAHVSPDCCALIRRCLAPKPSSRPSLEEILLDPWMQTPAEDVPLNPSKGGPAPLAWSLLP

Bounds are passed on as bounds.

PIM1, sequence (P11309 whole entry): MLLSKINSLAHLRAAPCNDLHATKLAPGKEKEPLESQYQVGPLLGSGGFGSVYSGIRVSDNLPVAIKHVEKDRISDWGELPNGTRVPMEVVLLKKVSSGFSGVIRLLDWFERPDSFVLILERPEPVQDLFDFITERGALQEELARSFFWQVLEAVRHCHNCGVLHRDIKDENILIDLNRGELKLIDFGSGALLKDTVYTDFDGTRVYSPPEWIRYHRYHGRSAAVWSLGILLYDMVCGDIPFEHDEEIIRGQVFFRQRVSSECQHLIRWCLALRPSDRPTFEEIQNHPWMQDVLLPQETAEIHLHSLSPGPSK
GSK3β, sequence (P49841 whole entry, species assumed): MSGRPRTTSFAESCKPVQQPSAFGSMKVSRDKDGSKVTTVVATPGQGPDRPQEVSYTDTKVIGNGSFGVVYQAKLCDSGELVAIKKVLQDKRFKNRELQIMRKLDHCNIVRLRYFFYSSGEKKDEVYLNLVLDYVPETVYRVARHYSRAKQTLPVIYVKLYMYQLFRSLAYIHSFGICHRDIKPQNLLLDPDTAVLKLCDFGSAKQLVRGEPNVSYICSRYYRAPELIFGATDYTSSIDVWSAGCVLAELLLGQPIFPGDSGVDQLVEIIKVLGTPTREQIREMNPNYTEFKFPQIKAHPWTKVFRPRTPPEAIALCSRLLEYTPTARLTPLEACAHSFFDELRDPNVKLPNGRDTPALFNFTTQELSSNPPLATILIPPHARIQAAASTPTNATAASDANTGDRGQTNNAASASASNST

The term IC50 denotes the midpoint of a concentration-inhibition curve. As a reminder, the EC50 is the concentration needed to bring the measured effect to its halfway point. A high value points to a need for much substance. Turning to `O=C(Nc1cnccc1[C@@H]1C[C@@H](O)[C@H](O)[C@@H](CO)O1)c1ccc(F)c(-c2c(F)cccc2F)n1` [Example 78, 6-(2,6-difluorophenyl)-N-(4-((2S,4R,5S,6R)-4,5-dihydroxy-6-(hydroxymethyl)tetrahydro-2H-pyran-2-yl)pyridin-3-yl)-5-fluoropicolinamide], the IC50 came to 127 nM in assay [1], 151 nM in assay [3], 5820 nM in assay [4] and 2520 nM in assay [5]. This molecule also yielded a concentration for a half-maximal effect (EC50) in assay [2] of 1500 nM.
Consider `O=C(Nc1cnccc1C1=C[C@@H](O)[C@H](O)[C@@H](CO)O1)c1ccc(F)c(-c2c(F)cccc2F)n1` [Example 79, 6-(2,6-difluorophenyl)-N-(4-((2R,3S,4R)-3,4-dihydroxy-2-(hydroxymethyl)-3,4-dihydro-2H-pyran-6-yl)pyridin-3-yl)-5-fluoropicolinamide], for which the IC50 stood at 2 nM in assay [1], 3 nM in assay [3], 1450 nM in assay [4] and 17 nM in assay [5]. In addition, the EC50 in assay [2] is > 10000 nM.
Taken in the same sequence, the figures for `O=C(Nc1cnccc1[C@H]1C[C@@H](O)[C@H](O)[C@@H](CO)O1)c1csc(-c2c(F)cccc2F)n1` [Example 80, 2-(2,6-difluorophenyl)-N-(4-((2R,4R,5S,6R)-4,5-dihydroxy-6-(hydroxymethyl)tetrahydro-2H-pyran-2-yl)pyridin-3-yl)thiazole-4-carboxamide] were 44 nM, 171 nM, 1230 nM, 4920 nM and > 10000 nM.
For `O=C(Nc1cnccc1[C@H]1C[C@@H](O)[C@H](O)[C@@H](CO)O1)c1ccc(F)c(-c2c(F)cccc2F)n1` [Example 83, 6-(2,6-difluorophenyl)-N-(4-((2R,4R,5S,6R)-4,5-dihydroxy-6-(hydroxymethyl)tetrahydro-2H-pyran-2-yl)pyridin-3-yl)-5-fluoropicolinamide], the half-maximal inhibitory concentration (IC50) is 19 nM in assay [1], 32 nM in assay [3], 2800 nM in assay [4] and 291 nM in assay [5]. The EC50 in assay [2] is > 10000 nM.
Turning to `CC1(C)O[C@@H](c2ccncc2NC(=O)c2csc(-c3c(F)cccc3F)n2)C[C@H](O)[C@@H]1O` [Example 88, 2-(2,6-difluorophenyl)-N-(4-((2R,4S,5S)-4,5-dihydroxy-6,6-dimethyltetrahydro-2H-pyran-2-yl)pyridin-3-yl)thiazole-4-carboxamide], the IC50 in assay [1] is 1 nM; in assay [3], 5 nM; in assay [4] it was 10 nM; in assay [5] it was 80 nM. The molecule further came in with a half-maximal effective concentration (EC50) in assay [2] of 9700 nM.
Turning to `CC1(C)O[C@@H](c2ccncc2NC(=O)c2ccc(F)c(-c3c(F)cccc3F)n2)C[C@H](O)[C@@H]1O` [Example 89, 6-(2,6-difluorophenyl)-N-(4-((2R,4S,5S)-4,5-dihydroxy-6,6-dimethyltetrahydro-2H-pyran-2-yl)pyridin-3-yl)-5-fluoropicolinamide], the 50% inhibitory concentration (IC50) in assay [1] came out at 1 nM; in assay [3] it was 2 nM; in assay [4], 88 nM; in assay [5], 6 nM. In assay [2], this molecule yielded an EC50 of 2400 nM.
Taken in the same sequence, the figures for `CC1(C)O[C@H](c2ccncc2NC(=O)c2csc(-c3c(F)cccc3F)n2)C[C@@H](O)[C@H]1O` [Example 90, 2-(2,6-difluorophenyl)-N-(4-((2S,4R,5R)-4,5-dihydroxy-6,6-dimethyltetrahydro-2H-pyran-2-yl)pyridin-3-yl)thiazole-4-carboxamide] were 5 nM, 31 nM, 46 nM, 500 nM and 4000 nM.
Consider `CC1(C)O[C@H](c2ccncc2NC(=O)c2ccc(F)c(-c3c(F)cccc3F)n2)C[C@@H](O)[C@H]1O` [Example 91, 6-(2,6-difluorophenyl)-N-(4-((2S,4R,5R)-4,5-dihydroxy-6,6-dimethyltetrahydro-2H-pyran-2-yl)pyridin-3-yl)-5-fluoropicolinamide], for which the concentration for half-maximal inhibition (IC50) in assay [1] was 3 nM; in assay [3], 13 nM; in assay [4] it was 171 nM; in assay [5] it was 47 nM. Besides, the EC50 in assay [2] came out at 7100 nM.
Taken in the same sequence, the figures for `C[C@H]1O[C@@H](c2ccncc2NC(=O)c2cccc(-c3ccccc3F)n2)C[C@@H](O)[C@]1(C)O` [Example 92, N-(4-((2R,4R,5S,6R)-4,5-dihydroxy-5,6-dimethyltetrahydro-2H-pyran-2-yl)pyridin-3-yl)-6-(2-fluorophenyl)picolinamide] were 1 nM, 2 nM, 125 nM, 16 nM and > 10000 nM.
Consider `C[C@H]1O[C@@H](c2ccncc2NC(=O)c2ccc(F)c(-c3ccccc3F)n2)C[C@@H](O)[C@]1(C)O` [Example 93, N-(4-((2R,4R,5S,6R)-4,5-dihydroxy-5,6-dimethyltetrahydro-2H-pyran-2-yl)pyridin-3-yl)-5-fluoro-6-(2-fluorophenyl)picolinamide], for which the half-inhibitory concentration (IC50) in assay [1] stood at 1 nM; in assay [3], 5 nM; in assay [4], 117 nM; in assay [5] it was 59 nM. In assay [2], the EC50 was > 10000 nM.
The corresponding values for `O=C(Nc1cnccc1[C@@H]1OCC[C@H](CO)O1)c1csc(-c2c(F)cccc2F)n1` [Example 99, 2-(2,6-difluorophenyl)-N-(4-((2R,4R)-4-(hydroxymethyl)-1,3-dioxan-2-yl)pyridin-3-yl)thiazole-4-carboxamide] are 14 nM, 75 nM, 3170 nM, 3380 nM and > 10000 nM.
The corresponding values for `O=C(Nc1cnccc1[C@@H]1OCC[C@H](CO)O1)c1ccc(F)c(-c2c(F)cccc2F)n1` [Example 100, 6-(2,6-difluorophenyl)-5-fluoro-N-(4-((2R,4R)-4-(hydroxymethyl)-1,3-dioxan-2-yl)pyridin-3-yl)picolinamide] are 10 nM, 42 nM, 2470 nM, 799 nM and > 10000 nM.
The corresponding values for `O=C(Nc1cnccc1[C@H]1OC[C@H](CO)O1)c1ccc(F)c(-c2c(F)cccc2F)n1` [Example 101, 6-(2,6-difluorophenyl)-5-fluoro-N-(4-((2S,4S)-4-(hydroxymethyl)-1,3-dioxolan-2-yl)pyridin-3-yl)picolinamide] are 12 nM, 68 nM, 2600 nM, 1340 nM and > 10000 nM.
On to `O=C(Nc1cnccc1[C@H]1OCC[C@@H](CO)O1)c1csc(-c2c(F)cccc2F)n1` [Example 102, 2-(2,6-difluorophenyl)-N-(4-((2S,4S)-4-(hydroxymethyl)-1,3-dioxan-2-yl)pyridin-3-yl)thiazole-4-carboxamide], for which the IC50 in assay [1] is 28 nM; in assay [3], 103 nM; in assay [4], 2000 nM; in assay [5], 2890 nM. Besides, the EC50 in assay [2] is > 10000 nM.
The corresponding values for `O=C(Nc1cnccc1[C@H]1OCC[C@@H](CO)O1)c1ccc(F)c(-c2c(F)cccc2F)n1` [Example 103, 6-(2,6-difluorophenyl)-5-fluoro-N-(4-((2S,4S)-4-(hydroxymethyl)-1,3-dioxan-2-yl)pyridin-3-yl)picolinamide] are 11 nM, 27 nM, 2420 nM, 502 nM and > 10000 nM.

The values are drawn from patent US20130109682A1, “CYCLIC ETHER COMPOUNDS USEFUL AS KINASE INHIBITORS” (NOVARTIS AG, priority 2010, published 2013).
